In ChEMBL document CHEMBL1201862, “PubChem BioAssay data set” (2004):
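Test compounds were applied to cells in 96-well plates for 48 hours at 5 doses. GI50 is the concentration that inhibits growth by half.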 Activity calls are given as the source filed them. No stated cut-off is given here; in the data, active = GI50 up to about 1.1 µM and inactive = higher.

What was measured:
Assay in all cases: NCI-60 cell line screen, 48 h
CCRF-CEM = system: CCRF-CEM
IGROV-1 = system: IGROV-1
RXF 393 = system: RXF 393
OVCAR-8 = system: OVCAR-8
SK-OV-3 = system: SK-OV-3
SF-295 = system: SF-295
U-251 = system: U-251
786-0 = system: 786-0
A549 = system: A549
SK-MEL-28 = system: SK-MEL-28
TK-10 = system: TK-10
NCI-H522 = system: NCI-H522
SNB-19 = system: SNB-19
PC-3 = system: PC-3
MDA-MB-435 = system: MDA-MB-435
LOX IMVI = system: LOX IMVI
UACC-257 = system: UACC-257
DU-145 = system: DU-145
OVCAR-3 = system: OVCAR-3
SK-MEL-2 = system: SK-MEL-2
SF-539 = system: SF-539
M14 = system: M14
OVCAR-5 = system: OVCAR-5
SNB-75 = system: SNB-75
UACC-62 = system: UACC-62
SF-268 = system: SF-268
SK-MEL-5 = system: SK-MEL-5
HOP-92 = system: HOP-92
Hs-578T = system: Hs-578T
HCC 2998 = system: HCC 2998
A498 = system: A498
MDA-MB-231 = system: MDA-MB-231
SW-620 = system: SW-620
KM12 = system: KM12
EKVX = system: EKVX
NCI-H23 = system: NCI-H23
NCI-H226 = system: NCI-H226
MDA-N = system: MDA-N
UO-31 = system: UO-31
CAKI-1 = system: CAKI-1
T47D = system: T47D
COLO 205 = system: COLO 205
NCI/ADR-RES = system: NCI/ADR-RES
MCF7 = system: MCF7
OVCAR-4 = system: OVCAR-4
K562 = system: K562
HT-29 = system: HT-29
HCT-15 = system: HCT-15
RPMI-8226 = system: RPMI-8226
MOLT-4 = system: MOLT-4
NCI-H460 = system: NCI-H460
ACHN = system: ACHN
SN12C = system: SN12C
BT-549 = system: BT-549
HCT-116 = system: HCT-116
Malme-3M = system: Malme-3M

## O=c1cc(N2CCN(c3cc(=O)n4ccccc4n3)CC2)oc2ccccc12
CCRF-CEM
  GI50: 6.7 µM (inactive)
IGROV-1
  GI50: 95.5 µM (inactive)
RXF 393
  GI50: 36.1 µM (inactive)
OVCAR-8
  GI50: > 51.4 µM (inactive)
SK-OV-3
  GI50: > 100 µM (inactive)
SF-295
  GI50: > 76.7 µM (inactive)
U-251
  GI50: > 58.1 µM (inactive)
786-0
  GI50: > 76 µM (inactive)
A549
  GI50: 32.3 µM (inactive)
SK-MEL-28
  GI50: > 100 µM (inactive)
TK-10
  GI50: > 100 µM (inactive)
NCI-H522
  GI50: 29.8 µM (inactive)
SNB-19
  GI50: > 55.5 µM (inactive)
PC-3
  GI50: > 100 µM (inactive)
MDA-MB-435
  GI50: 55 µM (inactive)
LOX IMVI
  GI50: > 100 µM (inactive)
UACC-257
  GI50: > 24 µM (inactive)
DU-145
  GI50: > 100 µM (inactive)
OVCAR-3
  GI50: > 100 µM (inactive)
SK-MEL-2
  GI50: > 100 µM (inactive)
SF-539
  GI50: > 100 µM (inactive)
M14
  GI50: 34.7 µM (inactive)
OVCAR-5
  GI50: > 100 µM (inactive)
SNB-75
  GI50: 9.06 µM (inactive)
UACC-62
  GI50: > 100 µM (inactive)
SF-268
  GI50: 25.6 µM (inactive)
SK-MEL-5
  GI50: 65.9 µM (inactive)
HOP-92
  GI50: 72.4 µM (inactive)
Hs-578T
  GI50: 36.2 µM (inactive)
HCC 2998
  GI50: 33.5 µM (inactive)
A498
  GI50: > 84.5 µM (inactive)
MDA-MB-231
  GI50: 61.9 µM (inactive)
SW-620
  GI50: 29.7 µM (inactive)
KM12
  GI50: 35.4 µM (inactive)
EKVX
  GI50: 31.2 µM (inactive)
NCI-H23
  GI50: 99.1 µM (inactive)
NCI-H226
  GI50: > 76.2 µM (inactive)
MDA-N
  GI50: > 100 µM (inactive)
UO-31
  GI50: 38.1 µM (inactive)
CAKI-1
  GI50: 34 µM (inactive)
T47D
  GI50: > 73.5 µM (inactive)
COLO 205
  GI50: 61 µM (inactive)
NCI/ADR-RES
  GI50: > 66.8 µM (inactive)
MCF7
  GI50: > 70.5 µM (inactive)
OVCAR-4
  GI50: > 100 µM (inactive)
K562
  GI50: 47.1 µM (inactive)
HT-29
  GI50: 38 µM (inactive)
HCT-15
  GI50: 30.6 µM
RPMI-8226
  GI50: 23 µM (inactive)
MOLT-4
  GI50: 33.6 µM (inactive)
NCI-H460
  GI50: 26.6 µM (inactive)
ACHN
  GI50: > 100 µM (inactive)
SN12C
  GI50: > 92.7 µM (inactive)
BT-549
  GI50: 68.1 µM (inactive)
HCT-116
  GI50: > 100 µM (inactive)
Malme-3M
  GI50: > 100 µM (inactive)
